In BindingDB's records for patent US20240059711 (University of Michigan, 2024):

Biological target: Protein cereblon (Homo sapiens, UniProt Q96SW2)
Test: Cereblon Binding Assay
Experimental: The binding to cereblon (CRBN) was determined using the Cereblon Binding Kit (Cisbio, #64BDCRBNPEG) following the manufacturer's instruction. Briefly, serially diluted compounds were incubated with GST-tagged wild-type human CRBN protein, XL665-labelled Thalidomide and Europium Cryptate labelled GST antibody at room temperature for about 3 hours. Time Resolved Fluorescence Resonance Energy Transfer (TR-FRET) measurements were acquired on a CALRIOstar plate reader with MARS data analysis software (BMG Labtech), with the following settings: 665/10 nm and 620/10 nm emission, 60 μs delay and 400 μs integration. The TR-FRET ratio was taken as the 665/620 nm intensity ratio.

Protein cereblon, sequence (Q96SW2 whole entry): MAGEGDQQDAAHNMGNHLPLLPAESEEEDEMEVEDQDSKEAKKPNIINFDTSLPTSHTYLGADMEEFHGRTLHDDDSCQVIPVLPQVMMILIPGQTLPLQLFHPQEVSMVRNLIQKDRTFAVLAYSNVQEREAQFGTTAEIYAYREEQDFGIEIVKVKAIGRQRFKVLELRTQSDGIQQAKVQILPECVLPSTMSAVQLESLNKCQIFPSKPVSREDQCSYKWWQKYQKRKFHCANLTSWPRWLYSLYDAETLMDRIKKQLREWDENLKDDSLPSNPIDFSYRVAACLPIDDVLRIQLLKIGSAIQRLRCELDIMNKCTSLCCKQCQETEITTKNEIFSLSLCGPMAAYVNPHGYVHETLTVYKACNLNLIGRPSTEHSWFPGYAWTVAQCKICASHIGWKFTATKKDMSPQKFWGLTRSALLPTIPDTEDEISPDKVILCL

| SMILES | IC50 [nM] |
| --- | --- |
| O=C1CCC(N2Cc3c(ccc4c3O[C@@H](COCc3ccccc3)CO4)C2=O)C(=O)N1 (some centres not stated) [US20240059711, Compound B9] | 580 |
| O=C1CCC(N2Cc3c(ccc4c3O[C@H](COCc3ccccc3)CO4)C2=O)C(=O)N1 (some centres not stated) [US20240059711, Compound B10] | 800 |
